Test results reported in the Kinase Knowledgebase extract (Sharma et al. 2016).

Target: EGFR (human) (UniProt P00533)
Sequence (P00533 whole entry, looked up): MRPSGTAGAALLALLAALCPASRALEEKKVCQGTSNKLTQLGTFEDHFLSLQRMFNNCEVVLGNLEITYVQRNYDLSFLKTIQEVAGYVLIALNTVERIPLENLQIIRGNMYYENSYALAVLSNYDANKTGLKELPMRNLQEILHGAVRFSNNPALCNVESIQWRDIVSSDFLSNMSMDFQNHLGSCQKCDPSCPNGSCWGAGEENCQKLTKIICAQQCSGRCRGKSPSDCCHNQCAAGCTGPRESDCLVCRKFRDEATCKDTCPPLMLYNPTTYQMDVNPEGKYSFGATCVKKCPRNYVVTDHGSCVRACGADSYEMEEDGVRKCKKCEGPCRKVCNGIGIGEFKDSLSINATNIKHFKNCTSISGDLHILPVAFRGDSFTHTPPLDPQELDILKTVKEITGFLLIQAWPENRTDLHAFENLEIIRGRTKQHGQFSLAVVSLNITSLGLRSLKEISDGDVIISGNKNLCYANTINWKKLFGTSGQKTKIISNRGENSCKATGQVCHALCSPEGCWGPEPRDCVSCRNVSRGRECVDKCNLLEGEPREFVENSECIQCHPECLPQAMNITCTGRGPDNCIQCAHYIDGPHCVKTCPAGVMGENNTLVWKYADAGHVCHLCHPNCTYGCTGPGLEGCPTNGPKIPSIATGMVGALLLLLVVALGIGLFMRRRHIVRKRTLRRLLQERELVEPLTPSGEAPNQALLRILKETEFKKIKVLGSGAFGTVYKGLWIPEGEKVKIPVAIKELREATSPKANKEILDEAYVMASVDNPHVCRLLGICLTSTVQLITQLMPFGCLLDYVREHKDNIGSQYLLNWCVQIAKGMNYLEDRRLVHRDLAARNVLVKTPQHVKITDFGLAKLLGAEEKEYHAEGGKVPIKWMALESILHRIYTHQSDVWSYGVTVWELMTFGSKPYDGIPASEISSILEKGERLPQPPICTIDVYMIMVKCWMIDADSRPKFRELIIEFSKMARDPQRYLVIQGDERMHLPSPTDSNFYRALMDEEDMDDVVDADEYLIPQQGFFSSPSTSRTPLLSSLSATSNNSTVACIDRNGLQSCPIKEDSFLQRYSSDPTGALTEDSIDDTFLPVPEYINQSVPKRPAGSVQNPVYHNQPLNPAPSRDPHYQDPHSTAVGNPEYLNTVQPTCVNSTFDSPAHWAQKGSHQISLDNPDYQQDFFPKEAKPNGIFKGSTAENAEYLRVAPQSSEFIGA

Compound | IC50 [µM]
Cc1ccc(CNC(=O)c2cccc(-c3cnc(N)c(C(=O)N[C@H]4CCCNC4)n3)c2)c(F)c1F | ≥ 10
Nc1ncc(-c2cccc(C(=O)NCc3ccc(Cl)cc3F)c2)nc1C(=O)N[C@H]1CCCNC1 | ≥ 10
Nc1ncc(-c2cccc(CNC(=O)c3cccs3)c2)nc1C(=O)N[C@H]1CCCNC1 | 1 to 10
CCNCCOc1cccc(-c2cnc(N)c(C(=O)N[C@H]3CCCNC3)n2)c1 | 1 to 10
Nc1ncc(-c2cccc(NC(=O)Cc3ccc(F)cc3F)c2)nc1C(=O)N[C@H]1CCCNC1 | 0.05 to 1
Nc1ncc(-c2cccc(C(=O)NCc3ccc(OC(F)(F)F)cc3)c2)nc1C(=O)N[C@H]1CCCNC1 | ≥ 10
Nc1ncc(-c2cccc(CNC(=O)c3ccc(F)cc3)c2)nc1C(=O)N[C@H]1CCCNC1 | 1 to 10
Nc1ncc(-c2cccc(NC(=O)c3cnc4ccccc4c3)c2)nc1C(=O)N[C@H]1CCCNC1 | 1 to 10
Nc1ncc(-c2cccc(CN[C@@H]3c4ccccc4C[C@@H]3O)c2)nc1C(=O)N[C@H]1CCCNC1 | 1 to 10
COc1ccc(CNC(=O)c2cccc(-c3cnc(N)c(C(=O)N[C@H]4CCCNC4)n3)c2)cc1 | ≥ 10
CN(C)c1ccc(CNC(=O)c2cccc(-c3cnc(N)c(C(=O)N[C@H]4CCCNC4)n3)c2)cc1 | ≥ 10
Nc1ncc(-c2cccc(CNC(=O)Nc3ccc(-c4ccccc4)cc3)c2)nc1C(=O)N[C@H]1CCCNC1 | ≥ 10
Nc1ncc(-c2cccc(C(=O)NCc3ccc(Cl)cc3)c2)nc1C(=O)N[C@H]1CCCNC1 | ≥ 10
